# In publication PMC5298231, “The Malaria Parasite's Lactate Transporter PfFNT Is the Target of Antiplasmodial Compounds Identified in Whole Cell Phenotypic Screens” (PLoS Pathogens, 2017):
# System: erythrocytes infected with 3D7 trophozoites
# Format: cell-based, Plasmodium falciparum
# Conditions: Av 3hr; 6 μM
smiles,measurement,value
COc1ccc2c(c1)OC(O)(C(F)(F)C(F)(F)F)CC2=O (stereo not shown) [MMV007839],2-Hydroxyglutarate log2 ratio (+MMV007839/-MMV007839),-0.6103
same,2-Ketoglutarate log2 ratio (+MMV007839/-MMV007839),-0.8232
same,3-Phosho-D-glycerate log2 ratio (+MMV007839/-MMV007839),0.07426
same,3-Phospho-serine log2 ratio (+MMV007839/-MMV007839),-0.4035
same,4-Aminobutanoate log2 ratio (+MMV007839/-MMV007839),0.8488
same,5-Phosphoribosyl-1-pyrophosphate log2 ratio (+MMV007839/-MMV007839),0.5077
same,ADP log2 ratio (+MMV007839/-MMV007839),-0.7166
same,AMP log2 ratio (+MMV007839/-MMV007839),-0.5704
same,ATLS log2 ratio (+MMV007839/-MMV007839),-0.2347
same,ATP log2 ratio (+MMV007839/-MMV007839),-0.2177
same,Acetyl-CoA log2 ratio (+MMV007839/-MMV007839),-0.7235
same,Acetyl-L-alanine log2 ratio (+MMV007839/-MMV007839),-0.3599
same,Adenine log2 ratio (+MMV007839/-MMV007839),-0.8446
same,Arginine log2 ratio (+MMV007839/-MMV007839),0.2396
same,Asparagine log2 ratio (+MMV007839/-MMV007839),-0.1753
same,Aspartic Acid log2 ratio (+MMV007839/-MMV007839),-0.3736
same,CDP log2 ratio (+MMV007839/-MMV007839),-0.5752
same,CDP-ethanolamine log2 ratio (+MMV007839/-MMV007839),0.02366
same,CMP log2 ratio (+MMV007839/-MMV007839),-0.08882
same,CTP log2 ratio (+MMV007839/-MMV007839),-0.3119
same,Cholesteryl sulfate log2 ratio (+MMV007839/-MMV007839),-0.1335
same,Citrate log2 ratio (+MMV007839/-MMV007839),-0.1028
same,CoA log2 ratio (+MMV007839/-MMV007839),-0.556
same,Cyclic AMP log2 ratio (+MMV007839/-MMV007839),-0.7854
same,Cytidine log2 ratio (+MMV007839/-MMV007839),-0.2914
same,D-Glucono-1-4-lactone log2 ratio (+MMV007839/-MMV007839),1.992
same,DALT log2 ratio (+MMV007839/-MMV007839),-0.8981
same,DEVG log2 ratio (+MMV007839/-MMV007839),-0.08263
same,DGLA log2 ratio (+MMV007839/-MMV007839),-0.7349
same,DLS log2 ratio (+MMV007839/-MMV007839),-0.6175
same,Deoxycytidine log2 ratio (+MMV007839/-MMV007839),1.594
same,Dihydroorotate log2 ratio (+MMV007839/-MMV007839),-1.064
same,ESFG log2 ratio (+MMV007839/-MMV007839),-0.07747
same,EVGG log2 ratio (+MMV007839/-MMV007839),-0.1694
same,Erythrose 4-phosphate log2 ratio (+MMV007839/-MMV007839),-0.2579
same,FAD log2 ratio (+MMV007839/-MMV007839),-0.4239
same,FMN log2 ratio (+MMV007839/-MMV007839),-0.4985
same,Farnesyl diphosphate log2 ratio (+MMV007839/-MMV007839),-0.04123
same,Folate log2 ratio (+MMV007839/-MMV007839),-0.3602
same,Fructose-1-6-bisphosphate log2 ratio (+MMV007839/-MMV007839),1.146
same,Fructose-6-Phosphate log2 ratio (+MMV007839/-MMV007839),0.05598
same,GDP log2 ratio (+MMV007839/-MMV007839),-1.202
same,GDP-mannose log2 ratio (+MMV007839/-MMV007839),-0.4414
same,GMP log2 ratio (+MMV007839/-MMV007839),-1.665
same,GTP log2 ratio (+MMV007839/-MMV007839),-0.7051
same,Geranylgeranyl pyrophosphate log2 ratio (+MMV007839/-MMV007839),-0.6827
same,Gluconate log2 ratio (+MMV007839/-MMV007839),-0.02575
same,Glucose-6-Phosphate log2 ratio (+MMV007839/-MMV007839),-0.3489
same,Glutamate log2 ratio (+MMV007839/-MMV007839),-0.07518
same,Glutamine log2 ratio (+MMV007839/-MMV007839),0.8027
same,Glutathione disulfide log2 ratio (+MMV007839/-MMV007839),-0.1266
same,Glutathione log2 ratio (+MMV007839/-MMV007839),-0.02749
same,Glyceraldehyde 3-phosphate log2 ratio (+MMV007839/-MMV007839),-0.5897
same,Glycerone phosphate log2 ratio (+MMV007839/-MMV007839),0.4029
same,HLD log2 ratio (+MMV007839/-MMV007839),-0.9223
same,HVDD log2 ratio (+MMV007839/-MMV007839),-1.392
same,Histidine log2 ratio (+MMV007839/-MMV007839),0.6908
same,Homoserine log2 ratio (+MMV007839/-MMV007839),0.249
same,Hydroxy-L-proline log2 ratio (+MMV007839/-MMV007839),0.1081
same,Hypoxanthine log2 ratio (+MMV007839/-MMV007839),0.2683
same,IDP log2 ratio (+MMV007839/-MMV007839),0.1036
same,IMP log2 ratio (+MMV007839/-MMV007839),-0.04113
same,Inosine log2 ratio (+MMV007839/-MMV007839),0.2492
same,Isoleucine log2 ratio (+MMV007839/-MMV007839),0.01345
same,LD log2 ratio (+MMV007839/-MMV007839),0.008648
same,Lactate log2 ratio (+MMV007839/-MMV007839),2.632
same,Leucine log2 ratio (+MMV007839/-MMV007839),-0.1293
same,Lysine log2 ratio (+MMV007839/-MMV007839),0.8307
same,Malate log2 ratio (+MMV007839/-MMV007839),-0.2233
same,Mannitol log2 ratio (+MMV007839/-MMV007839),-0.2308
same,Methionine log2 ratio (+MMV007839/-MMV007839),-0.1652
same,Myristic acid log2 ratio (+MMV007839/-MMV007839),-0.3456
same,N-Acetyl-glutamate log2 ratio (+MMV007839/-MMV007839),-0.8123
same,N-Carbamoyl-L-aspartate log2 ratio (+MMV007839/-MMV007839),-1.502
same,NAD+ log2 ratio (+MMV007839/-MMV007839),0.03216
same,NADH log2 ratio (+MMV007839/-MMV007839),-1.72
same,NADP+ log2 ratio (+MMV007839/-MMV007839),-0.3346
same,Octoluse Bisphosphate log2 ratio (+MMV007839/-MMV007839),1.811
same,Ornithine log2 ratio (+MMV007839/-MMV007839),-0.1015
same,Orotate log2 ratio (+MMV007839/-MMV007839),-1.466
same,Orotidine 5-phosphate log2 ratio (+MMV007839/-MMV007839),-1.489
same,Orotidine log2 ratio (+MMV007839/-MMV007839),-1.057
same,PAEF log2 ratio (+MMV007839/-MMV007839),-1.307
same,PAVH log2 ratio (+MMV007839/-MMV007839),-1.929
same,PD log2 ratio (+MMV007839/-MMV007839),0.2119
same,PDAV log2 ratio (+MMV007839/-MMV007839),0.3685
same,PE log2 ratio (+MMV007839/-MMV007839),0.9141
same,PEE log2 ratio (+MMV007839/-MMV007839),-0.2135
same,PHF log2 ratio (+MMV007839/-MMV007839),0.05129
same,PPVQ log2 ratio (+MMV007839/-MMV007839),-0.3492
same,PVNF log2 ratio (+MMV007839/-MMV007839),-0.8559
same,PVQ log2 ratio (+MMV007839/-MMV007839),0.3164
same,PVQA log2 ratio (+MMV007839/-MMV007839),-1.408
same,Pantothenate log2 ratio (+MMV007839/-MMV007839),-0.2954
same,Phenylalanine log2 ratio (+MMV007839/-MMV007839),-0.1326
same,Phosphoenolpyruvate log2 ratio (+MMV007839/-MMV007839),0.2604
same,Pipecolate log2 ratio (+MMV007839/-MMV007839),0.1041
same,Proline log2 ratio (+MMV007839/-MMV007839),-0.09895
same,Pyridoxine log2 ratio (+MMV007839/-MMV007839),-0.07403
same,Pyruvate log2 ratio (+MMV007839/-MMV007839),1.858
same,Ribose-5-phosphate log2 ratio (+MMV007839/-MMV007839),0.8813
same,S-Adenosyl-L-homocysteine log2 ratio (+MMV007839/-MMV007839),-0.314
same,SDGLA log2 ratio (+MMV007839/-MMV007839),-0.3844
same,SFGD log2 ratio (+MMV007839/-MMV007839),-0.2955
same,Sedoheptoluse bisphosphate log2 ratio (+MMV007839/-MMV007839),-0.1481
same,Sedoheptulose-1/7-phosphate log2 ratio (+MMV007839/-MMV007839),0.2199
